Legend:
Type in all cases: in vivo
[1] = system: tomato plants (cv. Supersweet 100); test: Adenosine by irrigation: vegetative and reproductive growth of tomato plants; conditions: irrigation daily
Protocol: This example describes the increase in fruit production by tomato plants (cv. Supersweet 100), achieved via application of adenosine by irrigation. Adenosine (9-beta-D-adenosine) obtained from Sigma Chemical Co. (Catalog No. A9251) was applied in a sufficient amount of distilled water to move the material into the root zone of ‘Supersweet 100’ tomato plants. Plants receiving treatments 2 and 3 were treated once every 10 days. Plants receiving treatments 4, 5, 6, and 7 were treated daily. The total amount of cytokinin or adenosine received by plants in each treatment by the end of experiment (75 days after planting) is given in parenthesis in the Table 1-1 below. The IPA concentration of the vermicompost tea was determined by radioimmunoassay.

[2] = system: 'Fina Sodea' Clementine mandarin trees; test: Adenosine by foliar spray (canopy application): fruit number, yield and value of mandarin trees
Protocol: This example describes the increase in the number and yield of commercially valuable fruit of Clementine mandarin trees achieved by canopy application of adenosine. Adenosine (9-beta-D-adenosine) obtained from Sigma Chemical Co. (Catalog No. A9251) was applied (25 mg/L in 250 gallons of water per acre; 23.66 g/acre) with a 400 psi handgun sprayer one time at maximum peel thickness, which marks the end of the cell division stage of citrus fruit development, to ‘Fina Sodea’ Clementine mandarin trees.

[3] = system: 'Hass' avocado trees bearing an on-crop; test: Trunk injection: spring bloom (bud break) of on-crop avocado trees; conditions: for Floral (with fruit), No. of shoots per 100 nodes / Floral (w/o fruit), No. of shoots per 100 nodes / Determinate Floral, No. of shoots per 100 nodes / Indeterminate Floral, No. of shoots per 100 nodes / Floral, No. of shoots per 100 nodes: 1 g/tree trunk injection in Jan; for Floral (with fruit), No. of shoots per 100 nodes: branches with fruit; for Floral (w/o fruit), No. of shoots per 100 nodes: branches without fruit; for Determinate Floral, No. of shoots per 100 nodes / Indeterminate Floral, No. of shoots per 100 nodes / Floral, No. of shoots per 100 nodes: counted at spring bloom; for Floral, No. of shoots per 100 nodes: total floral shoots
Protocol: This example describes the use of adenosine to increase spring bud break of ‘Hass’ avocado trees to increase floral intensity and avocado production. Increased bud break was achieved via trunk injection of adenosine (9-beta-D-adenosine) obtained from Sigma Chemical Co. (Catalog No. A9251), alone or with a plant growth regulator. The following treatments were injected (1 g/tree) in mid-January into the trunk of on-crop ‘Hass’ avocado trees in a commercial orchard in Irvine, Calif.: (1) adenosine (Sigma); (2) 6-BA (Sigma); (3) GA3 (ProGibb 40%, Valent BioSciences Corp.); (4) TIBA (Sigma), and (5) TIBA plus adenosine. Each material was supplied at the rate of 1 g per tree dissolved in 50 to 60 ml distilled water using two plastic syringes per tree. There were five individual tree replicates per treatment, including (6) untreated on-crop control trees. For each tree, branches (12 inches long), 1 with fruit and 1 branch without fruit in each of the four tree quadrants, were tagged.

| Structure (SMILES) | # Fruit, average value per plant ([1]; total 0.35 μg by 75 days) | # Fruiting shoots, average value per plant ([1]; total 0.35 μg by 75 days) | # Leaves, average value per plant ([1]; total 0.35 μg by 75 days) | # Veg. shoots, average value per plant ([1]; total 0.35 μg by 75 days) | Fruit diameter ([1]; total 0.35 μg by 75 days) | Main Shoot (mm), average value per plant ([1]; total 0.35 μg by 75 days) [mm] | Tap Root (mm), average value per plant ([1]; total 0.35 μg by 75 days) [mm] | Floral (with fruit), No. of shoots per 100 nodes [3] | Floral (w/o fruit), No. of shoots per 100 nodes [3] [shoots per 100 nodes] | Determinate Floral, No. of shoots per 100 nodes [3] | Indeterminate Floral, No. of shoots per 100 nodes [3] [shoots per 100 nodes] | Floral, No. of shoots per 100 nodes [3] | other results |
| --- | --- | --- | --- | --- | --- | --- | --- | --- | --- | --- | --- | --- | --- |
| Nc1ncnc2c1ncn2[C@@H]1O[C@H](CO)[C@@H](O)[C@H]1O [Adenosine, 9-beta-D-adenosine] | 15 a | 17.60 a | 111 a | 38.00 a | 24.13 a mm | 74.00 | 28.00 | 8 abc shoots per 100 nodes | 10 | 3 ab shoots per 100 nodes | 7 | 10 ab shoots per 100 nodes | effect on length of the main shoot or the tap root ([1]; total 0.35 μg by 75 days): did not significantly alter; more leaves than untreated control plants ([1]; total 0.35 μg by 75 days): 2.85 fold; net increase in the number of fruit per plant over the untreated control ([1]; total 0.35 μg by 75 days): 87.5%; increase of average size of individual tomato fruit over untreated control ([1]; total 0.35 μg by 75 days, transverse diameter): 61%; Total kg/tree, Medium ([2]; 25 mg/L once at maximum peel thickness, 3-year cumulative yield, diameter 50.81-57.15 mm): 37.00 kg/tree; net increase in total fruit number ([2]; adenosine applied at maximum peel thickness, numerical (non-significant)): 12,460 fruit/200 trees/acre/3 years; effect on fruit quality ([2]; any year of the 3-year study): did not have a negative effect; juice acid of fruit from treated trees ([2]; year three of the study, P=0.0163): significantly reduced; total soluble solids to acid ratio of the juice ([2]; year three of the study, P=0.0570): higher; number of floral shoots compared to the untreated on-crop control trees ([3]; single trunk injection in January): not significantly different |
| C=C1C[C@]23C[C@@]1(O)CC[C@H]2[C@@]12C=C[C@H](O)[C@@](C)(C(=O)O1)[C@H]2[C@@H]3C(=O)O [GA3, gibberrillic acid] |  |  |  |  |  |  |  | 6 bc shoots per 100 nodes | 8 | 2 b shoots per 100 nodes | 6 | 7 b shoots per 100 nodes |  |
| CC(C)=CCNc1ncnc2nc[nH]c12 [IPA, isopentenyladenine] | 10 bc | 11.60 cd | 87 c | 30.80 c | 19.92 c mm | 81.00 | 20.25 |  |  |  |  |  | # Fruit, average value per plant ([1]; total 0.035 μg by 75 days): 13 ab; # Fruiting shoots, average value per plant ([1]; total 0.035 μg by 75 days): 12.40 bc; # Leaves, average value per plant ([1]; total 0.035 μg by 75 days): 99 abc; # Veg. shoots, average value per plant ([1]; total 0.035 μg by 75 days): 30.20 c; Fruit diameter ([1]; total 0.035 μg by 75 days): 21.81 b mm; Main Shoot (mm), average value per plant ([1]; total 0.035 μg by 75 days): 73.75 mm; Tap Root (mm), average value per plant ([1]; total 0.035 μg by 75 days): 25.50 mm |
| O=C(O)c1cc(I)cc(I)c1I [TIBA, 2,3,5-triiodobenzoic acid] |  |  |  |  |  |  |  | 11 ab shoots per 100 nodes | 8 | 1 b shoots per 100 nodes | 8 | 9 b shoots per 100 nodes |  |
